The values below come from ChEMBL document CHEMBL2034824, “Pyridyl-2,5-diketopiperazines as potent, selective, and orally bioavailable oxytocin antagonists: synthesis, pharmacokinetics, and in vivo potency” (J Med Chem, 2012).

In data set [1] the target is T1, Oxytocin receptor (Homo sapiens, UniProt P30559).
T1 sequence (P30559 whole entry): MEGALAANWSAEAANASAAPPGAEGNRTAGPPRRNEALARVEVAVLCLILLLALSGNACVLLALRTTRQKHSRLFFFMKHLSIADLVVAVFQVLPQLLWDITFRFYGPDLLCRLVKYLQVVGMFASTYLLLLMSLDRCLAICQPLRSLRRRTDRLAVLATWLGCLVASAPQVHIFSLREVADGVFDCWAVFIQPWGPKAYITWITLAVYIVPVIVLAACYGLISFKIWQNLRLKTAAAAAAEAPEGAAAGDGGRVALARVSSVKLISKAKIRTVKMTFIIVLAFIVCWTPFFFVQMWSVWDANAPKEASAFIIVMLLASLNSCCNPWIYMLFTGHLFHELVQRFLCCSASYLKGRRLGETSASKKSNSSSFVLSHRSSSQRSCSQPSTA
Put plainly: Antagonist activity at human oxytocin receptor assessed as inhibition of oxytocin binding by FLIPR analysis.

The nature of data set [2]: Clearance in rat at 5 mg/kg. Format: ADME, organism-based. Further details: dose 5 mg/kg. Conditions: in vivo.
For data set [3], the target named is serum albumin (Rattus norvegicus, UniProt P02770). As to the kind of experiment: Binding affinity to rat serum albumin. Format: ADME. The conditions noted are these: read-out: PB (converted).
Data set [4] deals with serum albumin (Homo sapiens, UniProt P02768). Put plainly: Binding affinity to human serum albumin. Format: ADME. The conditions noted are these: read-out: PB (converted).
Data set [5] is described as follows: AUC in rat at 5 mg/kg, po. Format: ADME, organism-based. Conditions: plasma. Details: dose 5 mg/kg, route oral.
Data set [6] can be described thus: Aqueous solubility of the compound by HPLC analysis. Format: physicochemical.
The nature of data set [7]: Oral bioavailability in rat at 5 mg/kg. Conditions: in vivo. Format: ADME, organism-based.
Data set [8] has as its target T1, Oxytocin receptor. As to the kind of experiment: Displacement of [3H]oxytocin from human oxytocin receptor.
Data set [9] in a line: Lipophilicity, log D of the compound by HPLC analysis. The data set is classed as physicochemical.
Data set [10] can be described thus: Oral bioavailability in cynomolgus monkey at 2 mg/kg. Format: ADME, organism-based, Macaca fascicularis. Conditions: in vivo.
Data set [11] in a line: Clearance in dog at 0.6 mg/kg. The data set is classed as ADME, organism-based, Canis lupus familiaris. Details: dose 0.6 mg/kg. Conditions: in vivo.
A further data set has as its system Liver. Put plainly: Intrinsic clearance in dog liver microsomes. Format: ADME, Canis lupus familiaris, Microsome.
Data set [12] in a line: Intrinsic clearance in cynomolgus monkey liver microsomes. Format: ADME, Macaca fascicularis, Microsome.
Data set [13] can be described thus: Clearance in cynomolgus monkey at 2 mg/kg. Format: ADME, organism-based, Macaca fascicularis. Further details: dose 2 mg/kg. The conditions noted are these: in vivo.
The test system of data set [14] is Liver microsomes. Put plainly: Intrinsic clearance in rat liver microsomes. Format: ADME, Microsome.
Data set [15] is described as follows: AUC in dog at 0.6 mg/kg, po. The data set is classed as ADME, organism-based, Canis lupus familiaris. Further details: dose 0.6 mg/kg, route oral. Conditions: plasma.
Data set [16] can be described thus: Oral bioavailability in dog at 0.6 mg/kg. Format: ADME, organism-based, Canis lupus familiaris. Conditions: in vivo.
Data set [17] can be described thus: AUC in cynomolgus monkey at 2 mg/kg, po. Format: ADME, organism-based, Macaca fascicularis. Details: dose 2 mg/kg, route oral. Conditions: plasma.
Data set [18] has as its system Liver microsomes. Put plainly: Intrinsic clearance in human liver microsomes. Format: ADME, Microsome.

In brackets after ≈: the same amount, converted by molar mass. Where only a bound is given, the exact number is not on record here.

Chain of serum albumin (Homo sapiens, UniProt P02768) (P02768 whole entry): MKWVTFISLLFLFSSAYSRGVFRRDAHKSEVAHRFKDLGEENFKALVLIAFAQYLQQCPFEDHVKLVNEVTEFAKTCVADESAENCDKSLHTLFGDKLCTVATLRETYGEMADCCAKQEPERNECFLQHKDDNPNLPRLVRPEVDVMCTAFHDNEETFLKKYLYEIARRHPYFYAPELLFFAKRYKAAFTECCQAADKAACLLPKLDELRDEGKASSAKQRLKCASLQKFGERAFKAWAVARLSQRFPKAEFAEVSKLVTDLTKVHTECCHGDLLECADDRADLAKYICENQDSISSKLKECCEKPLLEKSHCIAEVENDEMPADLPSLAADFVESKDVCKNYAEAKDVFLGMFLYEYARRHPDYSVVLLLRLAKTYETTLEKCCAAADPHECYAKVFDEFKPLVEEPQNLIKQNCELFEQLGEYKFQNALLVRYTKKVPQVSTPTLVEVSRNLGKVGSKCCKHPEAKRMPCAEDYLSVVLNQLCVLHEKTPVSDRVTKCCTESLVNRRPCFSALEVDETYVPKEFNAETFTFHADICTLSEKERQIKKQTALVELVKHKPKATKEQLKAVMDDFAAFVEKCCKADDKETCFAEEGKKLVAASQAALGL
Chain of serum albumin (Rattus norvegicus, UniProt P02770) (P02770 whole entry): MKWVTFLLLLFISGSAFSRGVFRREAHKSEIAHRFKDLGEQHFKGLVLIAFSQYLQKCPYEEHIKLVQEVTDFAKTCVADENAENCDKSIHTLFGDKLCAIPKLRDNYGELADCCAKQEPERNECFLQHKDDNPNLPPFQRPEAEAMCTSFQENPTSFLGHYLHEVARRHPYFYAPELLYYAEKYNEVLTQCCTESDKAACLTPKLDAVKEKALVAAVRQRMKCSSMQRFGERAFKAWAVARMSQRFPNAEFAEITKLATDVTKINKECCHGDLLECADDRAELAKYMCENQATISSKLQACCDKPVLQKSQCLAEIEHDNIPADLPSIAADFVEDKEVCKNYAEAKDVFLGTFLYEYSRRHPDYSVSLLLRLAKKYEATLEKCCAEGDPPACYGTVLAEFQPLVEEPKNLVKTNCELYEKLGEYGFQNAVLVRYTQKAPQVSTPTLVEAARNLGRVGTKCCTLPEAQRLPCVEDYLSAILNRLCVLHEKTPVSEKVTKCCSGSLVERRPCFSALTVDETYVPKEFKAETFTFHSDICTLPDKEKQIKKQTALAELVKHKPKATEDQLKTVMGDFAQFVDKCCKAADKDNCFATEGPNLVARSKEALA

On to `CC(C)C[C@@H]1C(=O)N[C@H](C2Cc3ccccc3C2)C(=O)N1[C@@H](C(=O)NC(C)C)c1ccccc1OC(F)(F)F`, for which the Ki on Oxytocin receptor [1] is 39.8 nM.
For `COc1ccc([C@H](C(=O)N2CCOCC2)N2C(=O)[C@@H](C3Cc4ccccc4C3)NC(=O)[C@H]2CC(C)C)cn1`, in data set [2], the clearance stood at 35 mL/min/kg. The figures for the fraction unbound on serum albumin [3] and at serum albumin [4] were 0.22 and 0.24, respectively. In [5], the AUC worked out at 2130 ng·h/mL. The compound further had a solubility in data set [6] of 249 µg/mL (≈ 478 µM). The compound further showed a bioavailability in data set [7] of 88%. The Ki at Oxytocin receptor [8] was 0.251 nM. For the same compound, the logD in data set [9] was found to be 2.7.
Turning to `CC[C@H](C)[C@@H]1C(=O)N[C@H](C2Cc3ccccc3C2)C(=O)N1[C@@H](C(=O)N(C)C)c1ccc(C)nc1C`, the figures for the bioavailability in data set [10], in [7] and in data set [16] were 1%, 84% and 44%, respectively. Besides, the clearance in [2] came out at 15 mL/min/kg; in data set [11] it was 14 mL/min/kg; in data set [13] it was 20 mL/min/kg. Moreover, the CLH with Liver was 1 mL/min/g; in [12], 14 mL/min/g; in the data set with Liver microsomes [14] it was 1 mL/min/g; in the data set with Liver microsomes [18], 7 mL/min/g. For the same compound, the AUC turned out to be 4720 ng·h/mL in [5], 305 ng·h/mL in data set [15] and 17 ng·h/mL in data set [17]. Besides, the affinity at Oxytocin receptor [8], expressed as Ki, was 0.0794 nM.
As for `COc1ccc([C@H](C(=O)N(C)C)N2C(=O)[C@@H](C3Cc4ccccc4C3)NC(=O)[C@H]2CC(C)C)cn1`, the clearance in data set [2] was determined as 23 mL/min/kg; in [11] it was 8 mL/min/kg. Moreover, the figures for the fraction unbound on serum albumin [3] and at serum albumin [4] were 0.14 and 0.08, respectively. Besides, the results for the AUC in [5] and in data set [15] were 2230 ng·h/mL and 158 ng·h/mL, respectively. Also, the concentration in solution in data set [6] (solubility) was 216 µg/mL (≈ 451 µM). Further, the bioavailability in data set [7] turned out to be 62%; in data set [16] it was 13%. For the same compound, the affinity at Oxytocin receptor [8] corresponds to a Ki of 0.398 nM. The compound also showed a logD in data set [9] of 2.7.
Regarding `COC(=O)c1ccccc1[C@@H](C(=O)NC(C)C)N1C(=O)[C@@H](C2Cc3ccccc3C2)NC(=O)[C@H]1CC(C)C`, the Ki at Oxytocin receptor [1] was 158 nM.
As for `CC(C)C[C@@H]1C(=O)N[C@H](C2Cc3ccccc3C2)C(=O)N1[C@@H](C(=O)NC(C)C)c1ccccc1C(F)(F)F`, the Ki at Oxytocin receptor [1] was 31.6 nM.
As to `Cc1ccc([C@H](C(=O)N2CCCC2)N2C(=O)[C@@H](C3Cc4ccccc4C3)NC(=O)[C@H]2CC(C)C)cn1`, the clearance in data set [2] came to 33 mL/min/kg. Further, the fraction unbound at serum albumin [3] is 0.3; on serum albumin [4] it was 0.24. Besides, in data set [5], the AUC was determined as 920 ng·h/mL. In data set [6], this compound had a solubility of 241 µg/mL (≈ 493 µM). In data set [7], this compound displayed a bioavailability of 36%. On Oxytocin receptor [8], the Ki is 0.501 nM. Further, the logD in [9] was 2.3.
For `Cc1ccccc1[C@H](C(=O)NC(C)C)N1C(=O)[C@@H](C2Cc3ccccc3C2)NC(=O)[C@H]1CC(C)C`, the Ki on Oxytocin receptor [1] was 7.94 nM.
For `CCc1ccccc1[C@H](C(=O)NC(C)C)N1C(=O)[C@@H](C2Cc3ccccc3C2)NC(=O)[C@H]1CC(C)C`, the inhibition constant (Ki) at Oxytocin receptor [1] was 15.8 nM.
`CC[C@H](C)[C@@H]1C(=O)N[C@H](C2Cc3ccccc3C2)C(=O)N1[C@@H](C(=O)N1CCOCC1)c1coc(C)n1` [RETOSIBAN] displayed a bioavailability in [10] of 10%. Further, the CLH in data set [12] stood at 6 mL/min/g; with Liver microsomes [18], 3 mL/min/g. In [13], the clearance came out at 26 mL/min/kg. The compound also had an AUC in data set [17] of 45 ng·h/mL.
As for `CCC(CC)[C@@H]1C(=O)N[C@H](C2Cc3ccccc3C2)C(=O)N1[C@@H](C(=O)NC)c1ccc(C)nc1`, the bioavailability in data set [10] came to 4%; in [7], 28%; in [16] it was 38%. The figures for the clearance in data set [2], in [11] and in [13] were 17 mL/min/kg, 22 mL/min/kg and 24 mL/min/kg, respectively. Besides, the CLH in the data set with Liver turned out to be 2 mL/min/g; in [12], 8 mL/min/g; in the data set on Liver microsomes [14], 1 mL/min/g; with Liver microsomes [18], 4 mL/min/g. Also, the AUC in data set [5] turned out to be 1470 ng·h/mL; in data set [15] it was 173 ng·h/mL; in data set [17], 29 ng·h/mL. This compound showed a Ki on Oxytocin receptor [8] of 0.1 nM.
On to `CC(C)C[C@@H]1C(=O)N[C@H](C2Cc3ccccc3C2)C(=O)N1[C@@H](C(=O)NC(C)C)c1ccccc1Cl`, for which the Ki on Oxytocin receptor [1] was 3.98 nM.
Take `CC(C)C[C@@H]1C(=O)N[C@H](C2Cc3ccccc3C2)C(=O)N1[C@@H](C(=O)NC(C)C)c1ccccc1-c1ccccc1`: on Oxytocin receptor [1], the Ki is 39.8 nM.
Regarding `CC(C)C[C@@H]1C(=O)N[C@H](C2Cc3ccccc3C2)C(=O)N1[C@@H](C(=O)N1CCOCC1)c1ccc(N(C)C)nc1`, the values for the fraction unbound on serum albumin [3] and on serum albumin [4] were 0.29 and 0.3, respectively. In data set [5], this compound came in with an AUC of 80 ng·h/mL. Also, the concentration in solution in data set [6] (solubility) came to 235 µg/mL (≈ 440 µM). Further, on Oxytocin receptor [8], the Ki is 0.316 nM. The logD in data set [9] is 2.9.
`Cc1ccc([C@H](C(=O)N2CCOCC2)N2C(=O)[C@@H](C3Cc4ccccc4C3)NC(=O)[C@H]2CC(C)C)cn1`: the fraction unbound was 0.38 on serum albumin [3] and 0.33 on serum albumin [4]. Besides, in data set [11], the clearance worked out at 17 mL/min/kg. Further, the AUC in [5] was found to be 811 ng·h/mL; in data set [15], 53 ng·h/mL. The compound also gave a solubility in data set [6] of more than 253 µg/mL. Moreover, the bioavailability in [16] came out at 10%. Besides, on Oxytocin receptor [8], the affinity, expressed as Ki, was 0.398 nM. Also, in [9], the logD is 2.1.
As to `COc1ccccc1[C@H](C(=O)NC(C)C)N1C(=O)[C@@H](C2Cc3ccccc3C2)NC(=O)[C@H]1CC(C)C`, the Ki at Oxytocin receptor [1] was 31.6 nM.
On to `Cc1ccc([C@H](C(=O)N(C)C)N2C(=O)[C@@H](C3Cc4ccccc4C3)NC(=O)[C@H]2CC(C)C)cn1`, for which the clearance in [2] worked out at 18 mL/min/kg; in data set [11], 6 mL/min/kg. Besides, the figures for the fraction unbound on serum albumin [3] and on serum albumin [4] were 0.14 and 0.17, respectively. In addition, the CLH amounted to 3 mL/min/g in the data set on Liver, 21 mL/min/g in [12], 3 mL/min/g with Liver microsomes [14] and 11 mL/min/g in the data set on Liver microsomes [18]. In addition, the area under the curve (AUC) in data set [5] is 2680 ng·h/mL; in data set [15], 454 ng·h/mL. The compound further displayed a solubility in data set [6] of more than 236 µg/mL. Further, the bioavailability in [7] was 57%; in [16] it was 26%. Affinity on Oxytocin receptor [8] was put at a Ki of 1.58 nM. Moreover, the logD in [9] came to 2.1.
In the case of `CC(C)C[C@@H]1C(=O)N[C@H](C2Cc3ccccc3C2)C(=O)N1[C@@H](C(=O)N(C)C)c1ccc(N(C)C)nc1`, the fraction unbound on serum albumin [3] is 0.18; at serum albumin [4] it was 0.26. In data set [5], the AUC came out at 135 ng·h/mL. For the same compound, the solubility in data set [6] came to 233 µg/mL (≈ 474 µM). The same compound gave a Ki at Oxytocin receptor [8] of 0.251 nM. The compound further gave a log distribution coefficient (logD) in data set [9] of 2.6.
The compound `CCC(CC)[C@@H]1C(=O)N[C@H](C2Cc3ccccc3C2)C(=O)N1[C@@H](C(=O)N1CCOCC1)c1ccc(C)nc1C` returned a clearance in [2] of 15 mL/min/kg. The CLH in the data set with Liver was found to be 1 mL/min/g; in data set [12], 14 mL/min/g; in the data set on Liver microsomes [14], 1 mL/min/g; in the data set on Liver microsomes [18], 11 mL/min/g. Further, the results for the area under the curve (AUC) in [5] and in [17] were 2330 ng·h/mL and 11 ng·h/mL, respectively. The bioavailability in data set [7] was 42%. At Oxytocin receptor [8], this compound gave a Ki of 0.0316 nM.
